Measured values: patent US20260306484A1, “INVERSE AGONISTS OF RAR RELATED ORPHAN RECEPTORS (RORS)” (11949098 CANADA INC. (NUREDCO) c/o Jean I. TCHERVENKOV, priority 2023, published 2026)

Columns and labels:
[1] = system: CD4+ cells from in-vitro polarized peripheral blood mononuclear cells; assay: Th17-polarized PBMCs treated 48 h, then PMA/ionomycin and intracellular staining by flow cytometry; format: cell-based, human; conditions: 750 nM, PBMCs from 9 individuals, vs vehicle, paired t-test P<0.05
Experimental: FIG. 4 illustrates a bar graph represents the % of IL17A+ cells also known as Th17 cells out of CD4+ cells known as Helper T cells. The peripheral blood mononuclear cells from 9 individuals were polarized (in-vitro) using CD3/CD28 dynabeads in presence of TGFβ, IL1B, IL6 and IL23 for 14 days. The cells from each individual was divided into two equal portions and one portion was treated with the Cpd10 at dose of 750 nM and the second portion was treated with the vehicle for 48 hours followed by PMA/ionomycin in presence of transport blocker for 6 hours. Cpd10 decreased the % of IL17A+CD4+ in treated compared to vehicle treated controls and measured by flow cytometry. Paired t-test, significant, P<0.05.
(§1) FIG. 5 illustrates a bar graph represents the % of IL21+ cells which includes all types of CD4+ cells secreting IL21 (e.g. Th17, Tfh). The peripheral blood mononuclear cells from 9 individuals were polarized (in-vitro) using CD3/CD28 dynabeads in presence of TGFβ, IL1β, IL6 and IL23 for 14 days. The cells from each individual was divided into two equal portions and one portion was treated with the Cpd10 at dose of 750 nM and the second portion was treated with the vehicle for 48 hours followed by PMA/ionomycin in presence of transport blocker for 6 hours. Cpd10 decreased the % of IL21+CD4+ in treated compared to vehicle treated controls measured by flow cytometry. Paired t-test Significant P<0.05.
as §1, with “FIG. 6” for “FIG. 5”, “of IL22+” for “of IL21+”, “secreting IL22” for “secreting IL21”, “Th17, Th22).” for “Th17, Tfh).”, “of IL22+CD4+” for “of IL21+CD4+”, “Paired t-test, significant,” for “Paired t-test Significant”
FIG. 7 illustrates a bar graph represents the % RORγt+ cells which includes all types of CD4+ cells expressing RORγt (e.g. Th17). The peripheral blood mononuclear cells from 9 individuals were polarized (in-vitro) using CD3/CD28 dynabeads in presence of TGFβ, IL1β, IL6 and IL23 for 14 days. The cells from each individual was divided into two equal portions and one portion was treated with the Cpd10 at dose of 750 nM and the second portion was treated with the vehicle for 48 hours followed by PMA/ionomycin in presence of transport blocker for 6 hours. Cpd10 increased the % of RORγt+ CD4+ in treated compared to vehicle treated controls measured by flow cytometry. […]

[2] = system: pancreatic cancer (PDL1 expression); assay: PDL1 immune checkpoint expression in pancreatic cancer; format: cell-based, human; conditions: pancreatic cancer (FIG. 19)
breast cancer cell lines = assay: Cell colony forming units, breast cancer; format: cell-based, human; conditions: 5 micromolar
Hepa1-6 cells [3] = assay: Hepa1-6 colony formation assay; format: cell-based, mouse
Excerpt: (§2) FIG. 32 illustrates another in vitro viability assay Colony Formation Assay. […] HuH-7 and Hepa1-6 colony formation assays.
(§3) FIG. 33 illustrates another in vitro viability assay Colony Formation Assay. […] HuH-7 and Hepa1-6 colony formation assays.

HuH-7 cells [4] = assay: HuH-7 colony formation assay; format: cell-based, human
Excerpt: as §2, §3

Hepa1-6 cells [5] = assay: Hepa1-6 cell viability assay (MTT, GFP); format: cell-based, mouse; conditions: varying concentrations
Excerpt: (§4) FIG. 30 illustrates in vitro cell viability assay both human HuH-7 and mouse Hepa1-6 cell lines with increasing concentrations of compound 10. In the human cell line you see an effect with as low as 1mMol concentration. HuH-7 and Hepa1-6 cell viability assays.

HuH-7 cells [6] = assay: HuH-7 cell viability assay (MTT, GFP); format: cell-based, human
Excerpt: as §4

Balb/c skin grafts = assay: Balb/c skin graft survival in sensitized C57BL/6 recipients (Example 9); format: in vivo, mouse (C57BL/6); conditions: for median graft survival: daily ip, cpd 13 1 mg/kg, tacrolimus 0.5 mg/kg, or both, ctrl = 6 days, P-value<<0.001, mantel-cox test
Experimental: C57BL/6 mice were sensitized by 3 IP injections of 10 M Balb/c splenocytes at day 0, 7 and 14. The mice were transplanted at day 15 with 1 cm^2 skin grafts from Balb/c mice and treated daily with ip injections of vehicle (ctrl), cpd 13 1 mg/kg (131 mg/kg), tacrolimus 0.5 mg/kg (tacro0.5 mg/kg) and cpd13 1 mg/kg+tacrolimus 0.5 mg/kg (131 mg/kg+tacro0.5 mg/kg). P-value<<0.001, mantel-cox test; median graft survival: ctrl=6 days, tacro0.5 mg/kg=7 days, 131 mg/kg=13.5 days and cpd13 131 mg/kg+tacro0.5 mg/kg=23 days.

| SMILES | % of IL17A+ cells (Th17) out of CD4+ cells [1] | % of IL21+CD4+ cells [1] | % of IL22+CD4+ cells [1] | % of RORγt+ CD4+ cells [1] | expression of PDL1 [2] | ability to form colony forming units (breast cancer cell lines) | minimal effective concentration (Hepa1-6 cells [3]; Mus musculus, Hepa1-6, both cell lines suppressed, read-out: concentration at which Hepa1-6 colony formation is suppressed) | Hepa1-6 colony growth ability (Hepa1-6 cells [3]; varying concentrations) | minimal effective concentration (HuH-7 cells [4]; Homo sapiens, Huh-7, both cell lines suppressed, read-out: concentration at which HuH-7 colony formation is suppressed) | HuH-7 colony growth ability (HuH-7 cells [4]; varying concentrations) | Hepa1-6 cell viability, GFP assay (Hepa1-6 cells [5]) | Hepa1-6 cell viability, MTT assay (Hepa1-6 cells [5]) | minimal effective concentration (HuH-7 cells [6]; human cell line HuH-7, read-out: lowest concentration with an effect on cell viability) | HuH-7 cell viability, GFP assay (HuH-7 cells [6]; varying concentrations) | HuH-7 cell viability, MTT assay (HuH-7 cells [6]; varying concentrations) | median graft survival (Balb/c skin grafts) | skin graft survival increase (Balb/c skin grafts; increase survival from 1 up to 3 weeks (FIG. 50)) |
| --- | --- | --- | --- | --- | --- | --- | --- | --- | --- | --- | --- | --- | --- | --- | --- | --- | --- |
| CN1CCN(CC(=O)Nc2sc3c(c2C(=O)NCc2ccccc2)CCCC3)CC1 [Compound 10, N-benzyl-2-(2-(4-methylpiperazin-1-yl)acetamido)-4,5,6,7-tetrahydrobenzo[b]thiophene-3-carboxamide] | decreased | decreased | decreased | increased | increases that expression | significantly reduces | 2500 µM | significant and dose dependent difference | 2500 µM | significant and dose dependent difference | significant and dose dependent difference | significant and dose dependent difference | 1000 µM | significant and dose dependent difference | significant and dose dependent difference | – | – |
| C[C@@H]1CCN(C(=O)c2c(NC(=O)c3cccnc3)sc3c2CCCC3)[C@H](C)C1 [Compound 13, N-(3-((2R,4R)-2,4-dimethylpiperidine-1-carbonyl)-4,5,6,7-tetrahydrobenzo[b]thiophen-2-yl) nicotinamide] | – | – | – | – | – | – | – | – | – | – | – | – | – | – | – | 13.5 days | up to 3 weeks |
| C=CC[C@@H]1/C=C(\C)C[C@H](C)C[C@H](OC)[C@H]2O[C@@](O)(C(=O)C(=O)N3CCCC[C@H]3C(=O)O[C@H](/C(C)=C/[C@@H]3CC[C@@H](O)[C@H](OC)C3)[C@H](C)[C@@H](O)CC1=O)[C@H](C)C[C@@H]2OC [tacrolimus, reference compound] | – | – | – | – | – | – | – | – | – | – | – | – | – | – | – | 7 days | – |
